From US20210085623A1, “Formulation” (Medherant Limited, priority 2017, published 2021)

Legend:
[1] = Permeation of ibuprofen from patches through Strat-M membranes, diffusion cells; type: in vitro ADME; conditions: Strat-M membrane, patch without excipients
Description: In order to determine the necessity for further modification of ibuprofen patches with excipients, permeation rates of the API were observed using Strat-M membranes. Strat-M membranes are produced by Merck Millipore as a synthetic transdermal diffusion model to avoid animal or human skin testing. There is a correlation tool on a dedicated website allowing a comparison with human skin. Permeation profiles can vary depending on a drug, but it proves that Strat-M membranes can be employed as a reliable evaluation of any transdermal system in terms of human skin penetration. It must be said that penetration profiles in the case of human skin may differ from the aforementioned membrane, but allows predicting the efficacy of patches with certain reliability.
Patches tested in this study are from the same batch as employed in release experiments and were run under the same conditions. Permeation profiles and release profiles of ibuprofen through Strat-M membranes are depicted in FIGS. 1 and 2, respectively. […]

[2] = Passive release of ibuprofen from pressure sensitive adhesive patch, diffusion cells; conditions: Nylon membrane, patch without excipients
Description: Prior to determination of active pharmaceutical ingredient (API) diffusion across skin mimicking membranes, a passive release of ibuprofen from the pressure sensitive adhesive must be verified. […] Such an experiment can be performed using non-rate-limiting membranes, for example porous silicone, Nylon or polytetrafluoroethylene (PTFE). In this study, Nylon was employed as the test model for passive release.
All further mentioned patches contain 10 wt % of API. Unless stated otherwise, 6 sample patches were analysed in parallel. […] Experimental conditions are listed below.
Patch components: Pressure sensitive adhesive, ibuprofen, […]. Patch thickness: 300 μm Membrane type: Nylon, pore size 0.45 μm Apparatus: diffusion cells Acceptor medium: mixture of pH 7.4 PBS/2-(2-ethoxyethoxy) ethanol (90/10 vol.) […]

With CC(C)Cc1ccc(C(C)C(=O)O)cc1 (stereo not drawn) [ibuprofen] the Flux ([1]; 1 h) was 1.29 μg cm^−2 h^−1, the “Total Amount” value ([1]; 1 h) was 1.291 μg cm^−2 and the Flux ([1]; 2 h) was 2.75 μg cm^−2 h^−1. The “Total Amount” value ([1]; 2 h) was 4.044 μg cm^−2, the Flux ([1]; 4 h) was 2.71 μg cm^−2 h^−1 and the “Total Amount” value ([1]; 4 h) was 9.466 μg cm^−2. The Flux ([1]; 6 h) was 3.56 μg cm^−2 h^−1, the “Total Amount” value ([1]; 6 h) was 16.595 μg cm^−2 and the Flux ([1]; 8 h) was 3.91 μg cm^−2 h^−1. For the same molecule, the “Total Amount” value ([1]; 8 h) was 24.424 μg cm^−2, the Flux ([1]; 10 h) was 5.82 μg cm^−2 h^−1 and the “Total Amount” value ([1]; 10 h) was 36.066 μg cm^−2. For the same molecule, the Flux ([1]; 12 h) was 6.92 μg cm^−2 h^−1, the “Total Amount” value ([1]; 12 h) was 49.915 μg cm^−2 and the Flux ([1]; 24 h) was 4.96 μg cm^−2 h^−1. The “Total Amount” value ([1]; 24 h) was 109.467 μg cm^−2, the “Total Released Amount” value ([2]; 1 h) was 227.93 μg cm^−2 and the “Total Released Amount” value ([2]; 2 h) was 438.23 μg cm^−2. For the same molecule, the “Total Released Amount” value ([2]; 4 h) was 726.09 μg cm^−2, the “Total Released Amount” value ([2]; 6 h) was 967.49 μg cm^−2 and the “Total Released Amount” value ([2]; 8 h) was 1124.13 μg cm^−2. For the same molecule, the “Total Released Amount” value ([2]; 10 h) was 1257.46 μg cm^−2, the “Total Released Amount” value ([2]; 12 h) was 1397.34 μg cm^−2 and the “Total Released Amount” value ([2]; 24 h) was 1650.21 μg cm^−2.
